Test system: Aedes aegypti
Test: Examination of repellent activity using skin test (treated human forearm in cage of about 100 mated female mosquitoes)
Type: in vivo
Conditions: for Effective repellency duration (hour) (mean ± standard deviation): maximum measurement time 12 hours
Excerpt: Citronellic acid and geranic acid, which are used in the present invention, are commercially available or can directly be synthesized. In this embodiment, products of Aldrich Co. (product names are respectively Citronellic acid and Geranic acid) were purchased and used as citronellic acid and geranic acid. Purities of the above two compounds were examined using a gas chromatograph (GC) and a gas chromatograph-mass spectrometry (GC-MS). The compounds having purity of 99.5% or greater were only used. Respective ingredients of the above compounds were added to isopropyl alcohol of 91% to make test samples consisting of a solution in the concentration of 0.5 to 50%. The samples were used for mosquito repellent efficacy experiments.
The test samples manufactured as above underwent repellent effective experiments with respect to Aedes which is a main mosquito group attacking human.
In this embodiment, Aedes aegypti was used as test mosquitoes. The Aedes aegypti was supplied from Korea Research Institute of Bioscience and Biotechnology and reared indoor from generation to generation.
The larvae of the Aedes aegypti were reared in a plastic container of 22×14×7 cm containing distilled water with small amount of one-to-one mixture of chicken feed and yeast. Fresh mosquito pupae were transferred into a paper cup containing water and then placed in a transparent rearing cage to emerge as adults. Here, the rearing cage was constructed with metal net. Males and females of the freshly emerged mosquitoes were transferred to a rearing cage at one-to-one ratio, and left for two or three days for mating. The female mosquitoes were then used for repellency tests. Eight percent (8%) sugar water was supplied for the adult mosquitoes. The following rearing conditions were maintained: light condition of 16 h:8 h (day:night), temperature of 27±2° C., and relative humidity of 80±10%.
In order to examine effectiveness of the mosquito repellent of the prepared sample solutions, one (1) ml of a sample solution was uniformly applied, using a metal rod, on a forearm of a volunteer human test subject between wrist and elbow. Thereafter, the arm treated with the test solution was inserted in a bioassay cage, constructed with Plexiglass of 50×50×50 cm containing approximately 100 mated female mosquitoes. The number of mosquitoes trying to bite was recorded for three minutes in every thirty minutes for up to 4 hours or in every hour for up to 12 hours. The time required to get the arm bitten by two cumulative mosquitoes was regarded as effective repellency duration. A net window of 40×40 cm was present at each side and top of the Plexiglass bioassay cage to allow air ventilation. A 15×15 cm hole was prepared at the front side of the Plexiglass bioassay cage and a long net sleeve was attached to the hole so that the test arm could be put into the cage for repellency test.
At the beginning of each repellency test, an arm treated with no solvent was placed in the bioassay cage containing mosquitoes, in order to examine blood feeding activity of the mated female test mosquitoes. The repellency tests with the test solutions were carried out only when the arm was bitten by at least two mosquitoes for initial three minutes.
Repellent activity against Aedes was examined in accordance with the aforementioned method using the samples which respectively contain citronellic acid and geranic acid. Also, mosquito repellent activity was measured with solutions which contain DEET and Picadirin, wherein the DEET and Picadirin are commercially available mosquito repellents which are currently recommended by the Center for Disease Control of the United States.
In Table 4 to Table 6, the repellent efficiency was calculated using the following Equation 1.

[1] = 10% (0.25 mg/cm^3), 120 minutes
[2] = 10% (0.25 mg/cm^3), 150 minutes
[3] = 10% (0.25 mg/cm^3), 180 minutes
[4] = 10% (0.25 mg/cm^3), 210 minutes
[5] = 10% (0.25 mg/cm^3), 240 minutes
[6] = concentration 10% (0.25 mg/cm^3), time until two cumulative bites, maximum measurement time 240 minutes

Structure (SMILES): CC(C)=CCC/C(C)=C/C(=O)O [Geranic acid, geranic acid]
- Repellent efficiency (%) per time (minutes) (2% (0.05 mg/cm^3), 30 minutes): 100%
- Repellent efficiency (%) per time (minutes) (2% (0.05 mg/cm^3), 60 minutes): 100%
- Repellent efficiency (%) per time (minutes) (2% (0.05 mg/cm^3), 90 minutes): 100%
- Repellent efficiency (%) per time (minutes) (2% (0.05 mg/cm^3), 120 minutes): 100%
- Repellent efficiency (%) per time (minutes) (2% (0.05 mg/cm^3), 150 minutes): 83.3%
- Repellent efficiency (%) per time (minutes) (2% (0.05 mg/cm^3), 180 minutes): 50.0%
- Repellent efficiency (%) per time (minutes) (2% (0.05 mg/cm^3), 210 minutes): 50.0%
- Repellent efficiency (%) per time (minutes) (2% (0.05 mg/cm^3), 240 minutes): 33.3%
- Repellent efficiency (%) per time (minutes) (10% (0.25 mg/cm^3), 30 minutes): 100%
- Repellent efficiency (%) per time (minutes) (10% (0.25 mg/cm^3), 60 minutes): 100%
- Repellent efficiency (%) per time (minutes) (10% (0.25 mg/cm^3), 90 minutes): 100%
- Repellent efficiency (%) per time (minutes) [1]: 100%
- Repellent efficiency (%) per time (minutes) [2]: 100%
- Repellent efficiency (%) per time (minutes) [3]: 100%
- Repellent efficiency (%) per time (minutes) [4]: 100%
- Repellent efficiency (%) per time (minutes) [5]: 87.5%
- Repellent efficiency (%) per time (hours) (15% (0.375 mg/cm^3), 1 hour): 100%
- Repellent efficiency (%) per time (hours) (15% (0.375 mg/cm^3), 2 hours): 100%
- Repellent efficiency (%) per time (hours) (15% (0.375 mg/cm^3), 3 hours): 100%
- Repellent efficiency (%) per time (hours) (15% (0.375 mg/cm^3), 4 hours): 81.8%
- Repellent efficiency (%) per time (hours) (15% (0.375 mg/cm^3), 5 hours): 72.7%
- Repellent efficiency (%) per time (hours) (15% (0.375 mg/cm^3), 6 hours): 54.5%
- Repellent efficiency (%) per time (hours) (15% (0.375 mg/cm^3), 7 hours): 54.5%
- Repellent efficiency (%) per time (hours) (15% (0.375 mg/cm^3), 8 hours): 54.5%
- Repellent efficiency (%) per time (hours) (15% (0.375 mg/cm^3), 9 hours): 45.5%
- Repellent efficiency (%) per time (hours) (30% (0.75 mg/cm^3), 1 hour): 100%
- Repellent efficiency (%) per time (hours) (30% (0.75 mg/cm^3), 2 hours): 100%
- Repellent efficiency (%) per time (hours) (30% (0.75 mg/cm^3), 3 hours): 100%
- Repellent efficiency (%) per time (hours) (30% (0.75 mg/cm^3), 4 hours): 100%
- Repellent efficiency (%) per time (hours) (30% (0.75 mg/cm^3), 5 hours): 100%
- Repellent efficiency (%) per time (hours) (30% (0.75 mg/cm^3), 6 hours): 85.7%
- Repellent efficiency (%) per time (hours) (30% (0.75 mg/cm^3), 7 hours): 85.7%
- Repellent efficiency (%) per time (hours) (30% (0.75 mg/cm^3), 8 hours): 85.7%
- Repellent efficiency (%) per time (hours) (30% (0.75 mg/cm^3), 9 hours): 85.7%
- Repellent efficiency (%) per time (hours) (30% (0.75 mg/cm^3), 10 hours): 85.7%
- Repellent efficiency (%) per time (hours) (30% (0.75 mg/cm^3), 11 hours): 78.6%
- Repellent efficiency (%) per time (hours) (30% (0.75 mg/cm^3), 12 hours): 71.4%
- Repellent efficiency (%) per time (hours) (50% (1.25 mg/cm^3), 1 hour): 100%
- Repellent efficiency (%) per time (hours) (50% (1.25 mg/cm^3), 2 hours): 100%
- Repellent efficiency (%) per time (hours) (50% (1.25 mg/cm^3), 3 hours): 100%
- Repellent efficiency (%) per time (hours) (50% (1.25 mg/cm^3), 4 hours): 100%
- Repellent efficiency (%) per time (hours) (50% (1.25 mg/cm^3), 5 hours): 100%
- Repellent efficiency (%) per time (hours) (50% (1.25 mg/cm^3), 6 hours): 100%
- Repellent efficiency (%) per time (hours) (50% (1.25 mg/cm^3), 7 hours): 100%
- Repellent efficiency (%) per time (hours) (50% (1.25 mg/cm^3), 8 hours): 100%
- Repellent efficiency (%) per time (hours) (50% (1.25 mg/cm^3), 9 hours): 100%
- Repellent efficiency (%) per time (hours) (50% (1.25 mg/cm^3), 10 hours): 100%
- Repellent efficiency (%) per time (hours) (50% (1.25 mg/cm^3), 11 hours): 90%
- Repellent efficiency (%) per time (hours) (50% (1.25 mg/cm^3), 12 hours): 80%
- repellency (in words) (at the level of 0.0125 mg/cm^3): did not represent any repellency
- time for which repellent efficiency of 100% was shown (at the level of 0.05 mg/cm^3): 120 min
- time for which repellent efficiency of 100% was shown (at the level of 0.25 mg/cm^3): 210 min
- Effective repellency duration (minute) (mean ± standard deviation) (concentration 0.5% (0.0125 mg/cm^3), time until arm bitten by two cumulative mosquitoes): 0 ± 0 min
- Effective repellency duration (minute) (mean ± standard deviation) (concentration 2% (0.05 mg/cm^3), time until arm bitten by two cumulative mosquitoes): 195 ± 45.0 min
- Effective repellency duration (minute) (mean ± standard deviation) (concentration 2% (0.05 mg/cm^3), time until arm bitten by two cumulative mosquitoes, listed as geranic acid): 195 min
- Effective repellency duration (minute) (mean ± standard deviation) [6]: 240 ± 0 min
- Effective repellency duration (minute) (mean ± standard deviation) (concentration 10% (0.25 mg/cm^3), time until two cumulative bites, maximum measurement time 240 minutes, listed as geranic acid): 240 min
- Effective repellency duration (hour) (mean ± standard deviation) (concentration 15% (0.375 mg/cm^3)): 6.7 ± 1.20 h
- Effective repellency duration (hour) (mean ± standard deviation) (concentration 30% (0.75 mg/cm^3)): 10.0 ± 2.00 h
- Effective repellency duration (hour) (mean ± standard deviation) (concentration 30% (0.75 mg/cm^3), listed as geranic acid): 10 h
- Effective repellency duration (hour) (mean ± standard deviation) (concentration 50% (1.25 mg/cm^3)): 12.0 ± 0 h
- Effective repellency duration (hour) (mean ± standard deviation) (concentration 50% (1.25 mg/cm^3), listed as geranic acid): 12 h
- repellent efficiency (for 10 hours at the level of 0.75 mg/cm^3): ~90%
- repellent efficiency (for 10 hours at the level of 1.25 mg/cm^3): 100%

Structure (SMILES): CCC(C)OC(=O)N1CCCCC1CCO (stereo not drawn) [Picadirin, reference compound]
- Repellent efficiency (%) per time (minutes) (10% (0.25 mg/cm^3), 30 minutes): 85.0%
- Repellent efficiency (%) per time (minutes) (10% (0.25 mg/cm^3), 60 minutes): 85.0%
- Repellent efficiency (%) per time (minutes) (10% (0.25 mg/cm^3), 90 minutes): 85.0%
- Repellent efficiency (%) per time (minutes) [1]: 80.0%
- Repellent efficiency (%) per time (minutes) [2]: 75.0%
- Repellent efficiency (%) per time (minutes) [3]: 72.5%
- Repellent efficiency (%) per time (minutes) [4]: 62.5%
- Repellent efficiency (%) per time (minutes) [5]: 47.5%
- time for which repellent efficiency of 100% was shown (at the level of 0.25 mg/cm^3): less than 30 minutes
- Effective repellency duration (minute) (mean ± standard deviation) [6]: 158 min
- Effective repellency duration (minute) (mean ± standard deviation) (concentration 10% (0.25 mg/cm^3), time until two cumulative bites, maximum measurement time 240 minutes, listed as Picadrin): 158 ± 27.5 min
